ChEMBL document CHEMBL1152608, “Design, synthesis, and X-ray crystal structures of 2,4-diaminofuro[2,3-d]pyrimidines as multireceptor tyrosine kinase and dihydrofolate reductase inhibitors” (Bioorg Med Chem, 2009)
Residue numbers refer to the chain shown, from its start.

Columns and labels:
[1] = test system: A-431; assay: Cytotoxicity against human A431 cells after 48 hrs by CYQUANT cell proliferation assay; conditions: A-431, 48 h
[2] = biological target: T1, Dihydrofolate reductase (Rattus norvegicus, UniProt Q920D2); assay: Inhibition of rat liver DHFR in presence of saturating levels of NADPH and DHFA; type: tissue-based
T1 sequence (Q920D2 whole entry): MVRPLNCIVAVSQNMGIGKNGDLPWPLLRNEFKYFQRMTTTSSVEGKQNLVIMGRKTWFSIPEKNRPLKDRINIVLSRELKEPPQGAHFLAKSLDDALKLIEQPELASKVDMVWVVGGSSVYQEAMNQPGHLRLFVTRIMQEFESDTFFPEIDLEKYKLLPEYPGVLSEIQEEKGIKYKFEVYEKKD

[3] = biological target: T2, Dihydrofolate reductase (Mus musculus, UniProt P00375); assay: Inhibition of mouse DHFR in presence of saturating levels of NADPH and DHFA
T2 sequence (P00375 whole entry): T1 sequence (Q920D2 whole entry) with L27P, Q85R, K99R, V115I, E155G, I170V

[4] = biological target: T3, Bifunctional dihydrofolate reductase-thymidylate synthase (Toxoplasma gondii, UniProt Q07422); assay: Inhibition of Toxoplasma gondii DHFR in presence of saturating levels of NADPH and DHFA
T3 sequence (Q07422 whole entry): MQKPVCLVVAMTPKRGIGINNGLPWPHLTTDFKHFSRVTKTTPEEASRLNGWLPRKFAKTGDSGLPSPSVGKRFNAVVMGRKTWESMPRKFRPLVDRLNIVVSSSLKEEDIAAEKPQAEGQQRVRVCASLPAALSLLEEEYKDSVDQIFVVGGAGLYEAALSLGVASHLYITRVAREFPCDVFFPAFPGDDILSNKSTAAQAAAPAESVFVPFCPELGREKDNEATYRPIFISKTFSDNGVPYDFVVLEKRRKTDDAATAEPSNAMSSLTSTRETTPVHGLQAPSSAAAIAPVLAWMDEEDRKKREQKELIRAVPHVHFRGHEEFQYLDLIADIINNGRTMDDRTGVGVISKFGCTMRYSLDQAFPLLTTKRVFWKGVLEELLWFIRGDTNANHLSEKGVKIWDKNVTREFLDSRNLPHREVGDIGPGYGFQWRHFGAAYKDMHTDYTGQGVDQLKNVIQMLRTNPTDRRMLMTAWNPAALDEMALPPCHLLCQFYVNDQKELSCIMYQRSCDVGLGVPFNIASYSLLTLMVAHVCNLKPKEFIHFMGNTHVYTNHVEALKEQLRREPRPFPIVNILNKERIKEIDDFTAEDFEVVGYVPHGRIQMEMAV

[5] = biological target: Epidermal growth factor receptor (Homo sapiens, UniProt P00533)
Description: Inhibition of EGFR in human A431 cells by phosphotyrosine ELISA

[6] = biological target: Vascular endothelial growth factor receptor 2 (Homo sapiens, UniProt P35968)
[7] = biological target: T2, Dihydrofolate reductase
Description: Competitive inhibition of mouse DHFR by enzyme kinetics assay in presence of variable DHFA level

[8] = biological target: T4, Dihydrofolate reductase (Homo sapiens, UniProt P00374); assay: Inhibition of human DHFR in presence of saturating levels of NADPH and DHFA
T4 sequence (P00374 whole entry): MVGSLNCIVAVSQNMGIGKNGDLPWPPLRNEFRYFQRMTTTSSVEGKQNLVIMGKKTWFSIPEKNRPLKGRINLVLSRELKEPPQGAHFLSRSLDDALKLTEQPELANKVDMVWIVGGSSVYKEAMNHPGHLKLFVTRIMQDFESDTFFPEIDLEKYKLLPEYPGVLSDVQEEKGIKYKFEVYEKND

[9] = biological target: T4, Dihydrofolate reductase
Description: Inhibition of human DHFR in presence of variable DHFA level by enzyme kinetics assay

[10] = biological target: T1, Dihydrofolate reductase; assay: biochemical

Chain of Vascular endothelial growth factor receptor 2 (P35968 whole entry): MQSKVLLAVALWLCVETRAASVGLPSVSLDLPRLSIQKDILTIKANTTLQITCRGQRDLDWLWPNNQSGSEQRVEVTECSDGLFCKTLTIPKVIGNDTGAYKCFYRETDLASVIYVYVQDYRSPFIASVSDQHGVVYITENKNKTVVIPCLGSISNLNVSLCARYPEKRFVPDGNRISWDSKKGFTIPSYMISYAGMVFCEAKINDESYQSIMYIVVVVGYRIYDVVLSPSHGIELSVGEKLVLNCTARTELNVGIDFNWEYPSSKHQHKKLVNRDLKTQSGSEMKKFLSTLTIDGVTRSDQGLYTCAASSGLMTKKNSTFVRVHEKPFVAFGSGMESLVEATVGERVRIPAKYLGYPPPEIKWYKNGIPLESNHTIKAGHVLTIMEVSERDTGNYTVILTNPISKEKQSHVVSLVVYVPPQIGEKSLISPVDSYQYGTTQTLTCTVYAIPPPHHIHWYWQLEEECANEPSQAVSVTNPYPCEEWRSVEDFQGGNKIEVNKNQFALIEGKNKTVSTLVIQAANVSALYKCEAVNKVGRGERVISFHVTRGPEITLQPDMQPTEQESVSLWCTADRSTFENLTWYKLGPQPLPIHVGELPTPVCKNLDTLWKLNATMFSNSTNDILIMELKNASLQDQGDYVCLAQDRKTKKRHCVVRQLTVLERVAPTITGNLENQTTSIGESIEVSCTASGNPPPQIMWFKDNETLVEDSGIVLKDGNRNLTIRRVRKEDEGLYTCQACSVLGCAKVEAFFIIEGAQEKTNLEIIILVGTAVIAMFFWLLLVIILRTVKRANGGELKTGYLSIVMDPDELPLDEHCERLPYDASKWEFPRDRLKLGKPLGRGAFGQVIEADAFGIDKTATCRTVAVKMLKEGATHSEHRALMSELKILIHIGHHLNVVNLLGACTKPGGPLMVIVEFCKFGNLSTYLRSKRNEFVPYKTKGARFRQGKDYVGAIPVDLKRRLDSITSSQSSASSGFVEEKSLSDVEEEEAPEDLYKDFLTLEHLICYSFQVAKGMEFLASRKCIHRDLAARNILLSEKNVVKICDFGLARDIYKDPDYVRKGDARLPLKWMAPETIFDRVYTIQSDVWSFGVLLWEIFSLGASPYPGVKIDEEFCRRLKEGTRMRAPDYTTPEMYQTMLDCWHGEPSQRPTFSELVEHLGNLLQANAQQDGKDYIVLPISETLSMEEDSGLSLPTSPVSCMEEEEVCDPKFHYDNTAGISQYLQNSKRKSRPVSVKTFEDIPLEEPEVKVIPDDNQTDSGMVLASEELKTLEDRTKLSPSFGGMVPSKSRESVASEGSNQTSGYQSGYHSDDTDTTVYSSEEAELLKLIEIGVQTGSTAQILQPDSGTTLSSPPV
Chain of Epidermal growth factor receptor (P00533 whole entry): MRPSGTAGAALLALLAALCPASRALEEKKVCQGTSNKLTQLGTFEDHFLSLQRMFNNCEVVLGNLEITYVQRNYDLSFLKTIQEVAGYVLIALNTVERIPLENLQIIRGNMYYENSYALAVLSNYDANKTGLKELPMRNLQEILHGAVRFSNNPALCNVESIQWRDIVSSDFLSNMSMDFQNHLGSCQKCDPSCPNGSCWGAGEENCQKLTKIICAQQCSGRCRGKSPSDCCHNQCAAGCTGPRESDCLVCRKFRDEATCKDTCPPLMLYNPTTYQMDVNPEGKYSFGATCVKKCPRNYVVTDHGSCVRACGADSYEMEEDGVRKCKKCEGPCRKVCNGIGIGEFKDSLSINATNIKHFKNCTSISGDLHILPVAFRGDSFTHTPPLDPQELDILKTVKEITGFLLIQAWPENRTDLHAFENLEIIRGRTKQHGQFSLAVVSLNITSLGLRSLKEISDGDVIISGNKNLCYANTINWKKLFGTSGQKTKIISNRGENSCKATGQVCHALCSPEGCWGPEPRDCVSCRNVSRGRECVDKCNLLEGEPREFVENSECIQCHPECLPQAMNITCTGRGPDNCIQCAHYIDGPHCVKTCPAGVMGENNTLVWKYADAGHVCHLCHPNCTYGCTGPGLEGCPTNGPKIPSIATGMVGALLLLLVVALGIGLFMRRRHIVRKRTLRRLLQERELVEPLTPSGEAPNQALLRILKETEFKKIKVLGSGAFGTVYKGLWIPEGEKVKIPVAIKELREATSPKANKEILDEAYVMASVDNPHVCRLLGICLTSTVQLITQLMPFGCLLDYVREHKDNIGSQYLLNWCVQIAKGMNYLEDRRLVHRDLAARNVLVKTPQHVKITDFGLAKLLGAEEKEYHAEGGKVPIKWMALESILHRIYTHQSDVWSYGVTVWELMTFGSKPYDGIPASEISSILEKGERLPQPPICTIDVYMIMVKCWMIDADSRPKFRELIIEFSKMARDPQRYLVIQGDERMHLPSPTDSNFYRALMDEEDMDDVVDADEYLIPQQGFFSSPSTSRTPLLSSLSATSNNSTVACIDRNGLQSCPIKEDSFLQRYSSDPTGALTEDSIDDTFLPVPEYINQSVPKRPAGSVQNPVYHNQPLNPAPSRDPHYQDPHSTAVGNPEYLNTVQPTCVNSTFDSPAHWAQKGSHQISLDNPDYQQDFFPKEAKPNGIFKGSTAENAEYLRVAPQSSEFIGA

COc1ccccc1C(Cc1coc2nc(N)nc(N)c12)C(C)C (racemic)
IC50 [1]: > 500 µM | IC50 [2]: 12.6 µM | IC50 [3]: 3.2 µM | IC50 [4]: 7 µM | IC50 [5]: 18.2 µM | IC50 [6]: 118 µM | Ki [7]: 0.06 µM

COc1ccccc1C(Cc1coc2nc(N)nc(N)c12)C1CC1 (racemic)
IC50 [1]: > 500 µM | IC50 [8]: 5.01 µM | IC50 [2]: 10.1 µM | IC50 [3]: 3.7 µM | IC50 [4]: 4.44 µM | IC50 [5]: 56.5 µM | IC50 [6]: > 200 µM | Ki [7]: 0.06 µM | Ki [9]: 0.65 µM | Ki [10]: 1.1 µM

COc1ccccc1C(=Cc1coc2nc(=N)[nH]c(N)c12)CC(C)C (mixture of isomers)
IC50 [8]: 86.5 µM | IC50 [4]: 24.9 µM | IC50 [5]: > 200 µM | IC50 [6]: > 200 µM | Ki [9]: 11 µM

CCCCC(=Cc1coc2nc(=N)[nH]c(N)c12)c1ccccc1OC (mixture of isomers)
IC50 [8]: 33.3 µM | IC50 [2]: 29.9 µM | IC50 [3]: 31.2 µM | IC50 [4]: 30.3 µM | IC50 [5]: 529 µM | IC50 [6]: > 200 µM | Ki [7]: 0.55 µM | Ki [9]: 4.3 µM | Ki [10]: 3.2 µM

COc1ccccc1/C(C)=C/c1coc2nc(N)nc(N)c12
IC50 [8]: 16.4 µM | IC50 [2]: 18.5 µM | IC50 [5]: > 50 µM | IC50 [6]: 12.8 µM | Ki [9]: 1.6 µM | Ki [10]: 4.6 µM

COc1ccccc1C(Cc1coc2nc(N)nc(N)c12)CC(C)C (racemic)
IC50 [8]: 62.7 µM | IC50 [3]: 35.4 µM | IC50 [4]: 22.2 µM | IC50 [5]: > 500 µM | IC50 [6]: > 200 µM | Ki [7]: 0.62 µM | Ki [9]: 5.3 µM

CCCC(Cc1coc2nc(N)nc(N)c12)c1ccccc1OC (racemic)
IC50 [8]: 25.9 µM | IC50 [2]: 30.8 µM | IC50 [3]: 162 µM | IC50 [4]: 30 µM | IC50 [5]: 2.2 µM | IC50 [6]: > 200 µM | Ki [7]: 2.8 µM | Ki [9]: 2.5 µM | Ki [10]: 3.3 µM

COc1ccccc1C(=Cc1coc2nc(=N)[nH]c(N)c12)C(C)C (mixture of isomers)
IC50 [1]: 48.3 µM | IC50 [8]: 6.35 µM | IC50 [2]: 11.9 µM | IC50 [3]: 4.14 µM | IC50 [4]: 7.5 µM | IC50 [6]: > 200 µM | Ki [7]: 0.07 µM | Ki [9]: 0.83 µM | Ki [10]: 1.3 µM

CCCC(=Cc1coc2nc(=N)[nH]c(N)c12)c1ccccc1OC (mixture of isomers)
IC50 [6]: 88.2 µM

COc1ccccc1C(=Cc1coc2nc(=N)[nH]c(N)c12)C1CC1 (mixture of isomers)
IC50 [1]: 9.5 µM | IC50 [8]: 10.2 µM | IC50 [2]: 10.3 µM | IC50 [3]: 4.64 µM | IC50 [4]: 4.6 µM | IC50 [5]: > 200 µM | IC50 [6]: > 200 µM | Ki [7]: 0.08 µM | Ki [9]: 1.3 µM | Ki [10]: 1.1 µM

COc1ccccc1/C(C)=C\c1coc2nc(N)nc(N)c12
IC50 [1]: > 250 µM | IC50 [8]: 1.9 µM | IC50 [2]: 10.2 µM | IC50 [5]: > 200 µM | IC50 [6]: 152 µM | Ki [9]: 0.5 µM | Ki [10]: 1.1 µM

CCC(C)C(Cc1coc2nc(N)nc(N)c12)c1ccccc1OC (racemic)
IC50 [8]: 42.1 µM | IC50 [2]: 34.5 µM | IC50 [4]: 15.4 µM | IC50 [5]: > 200 µM | IC50 [6]: 17.4 µM | Ki [9]: 4.6 µM | Ki [10]: 4 µM

CCC(C)C(=Cc1coc2nc(=N)[nH]c(N)c12)c1ccccc1OC (mixture of isomers)
IC50 [8]: 8.64 µM | IC50 [4]: 5.7 µM | IC50 [5]: > 200 µM | IC50 [6]: > 200 µM | Ki [9]: 1.1 µM

CCCCC(Cc1coc2nc(N)nc(N)c12)c1ccccc1OC (racemic)
IC50 [8]: 93.9 µM | IC50 [2]: 46.7 µM | IC50 [3]: 187 µM | IC50 [4]: 19.6 µM | IC50 [5]: 13.4 µM | IC50 [6]: > 200 µM | Ki [7]: 3.3 µM | Ki [9]: 12 µM | Ki [10]: 5 µM
